Patent publication US10975056B2 (GlaxoSmithKline Intellectual Property Development Limited, priority 2016, dated 2021)
“And” between values parts separate entries of the source, which are not always exact repeats. Equal entries are not always repeated. Structures can show the parent of a compound that is named as a salt. Where two headings read alike, the source gives them in different places.

Key:
DNMT1 = DNMT1 (Homo sapiens, UniProt P26358); test: DNMT1 biochemical activity, breaklight assay and/or SPA assay
[1] = system: erythroid progenitor cells (EPCs); test: Fetal hemoglobin (HbF) ELISA in day 7 erythroid progenitor cells; assay type: cell-based, human; settings: Homo sapiens, Erythroid progenitor cell, HbF ELISA, day 7 EPCs, 5 days; read-out: EPC ELISA (pEC50 category) (converted);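 also: for fetal hemoglobin induction normalized to vehicle-treated cells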
Procedure, shortened: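 Day 7 EPCs from human bone marrow CD34+ cells were plated at 1,000 cells/well in media with 3 U/mL rhEPO. They were exposed to a 22-point dilution ([…]) for 5 days at 37 °C. Lysate HbF was measured by sandwich ELISA (OD450) and normalized to DMSO control wells.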

[2] = binned activity in either the breaklight or the SPA assay
[3] = binned activity in either the breaklight or the SPA assay, read-out: DNMT1 BioChemical (pIC50 category) (converted)
[4] = breaklight assay and/or SPA assay, repeated experimental runs, read-out: average pIC50 against DNMT1 (converted)

DNMT1, sequence (P26358 whole entry, looked up): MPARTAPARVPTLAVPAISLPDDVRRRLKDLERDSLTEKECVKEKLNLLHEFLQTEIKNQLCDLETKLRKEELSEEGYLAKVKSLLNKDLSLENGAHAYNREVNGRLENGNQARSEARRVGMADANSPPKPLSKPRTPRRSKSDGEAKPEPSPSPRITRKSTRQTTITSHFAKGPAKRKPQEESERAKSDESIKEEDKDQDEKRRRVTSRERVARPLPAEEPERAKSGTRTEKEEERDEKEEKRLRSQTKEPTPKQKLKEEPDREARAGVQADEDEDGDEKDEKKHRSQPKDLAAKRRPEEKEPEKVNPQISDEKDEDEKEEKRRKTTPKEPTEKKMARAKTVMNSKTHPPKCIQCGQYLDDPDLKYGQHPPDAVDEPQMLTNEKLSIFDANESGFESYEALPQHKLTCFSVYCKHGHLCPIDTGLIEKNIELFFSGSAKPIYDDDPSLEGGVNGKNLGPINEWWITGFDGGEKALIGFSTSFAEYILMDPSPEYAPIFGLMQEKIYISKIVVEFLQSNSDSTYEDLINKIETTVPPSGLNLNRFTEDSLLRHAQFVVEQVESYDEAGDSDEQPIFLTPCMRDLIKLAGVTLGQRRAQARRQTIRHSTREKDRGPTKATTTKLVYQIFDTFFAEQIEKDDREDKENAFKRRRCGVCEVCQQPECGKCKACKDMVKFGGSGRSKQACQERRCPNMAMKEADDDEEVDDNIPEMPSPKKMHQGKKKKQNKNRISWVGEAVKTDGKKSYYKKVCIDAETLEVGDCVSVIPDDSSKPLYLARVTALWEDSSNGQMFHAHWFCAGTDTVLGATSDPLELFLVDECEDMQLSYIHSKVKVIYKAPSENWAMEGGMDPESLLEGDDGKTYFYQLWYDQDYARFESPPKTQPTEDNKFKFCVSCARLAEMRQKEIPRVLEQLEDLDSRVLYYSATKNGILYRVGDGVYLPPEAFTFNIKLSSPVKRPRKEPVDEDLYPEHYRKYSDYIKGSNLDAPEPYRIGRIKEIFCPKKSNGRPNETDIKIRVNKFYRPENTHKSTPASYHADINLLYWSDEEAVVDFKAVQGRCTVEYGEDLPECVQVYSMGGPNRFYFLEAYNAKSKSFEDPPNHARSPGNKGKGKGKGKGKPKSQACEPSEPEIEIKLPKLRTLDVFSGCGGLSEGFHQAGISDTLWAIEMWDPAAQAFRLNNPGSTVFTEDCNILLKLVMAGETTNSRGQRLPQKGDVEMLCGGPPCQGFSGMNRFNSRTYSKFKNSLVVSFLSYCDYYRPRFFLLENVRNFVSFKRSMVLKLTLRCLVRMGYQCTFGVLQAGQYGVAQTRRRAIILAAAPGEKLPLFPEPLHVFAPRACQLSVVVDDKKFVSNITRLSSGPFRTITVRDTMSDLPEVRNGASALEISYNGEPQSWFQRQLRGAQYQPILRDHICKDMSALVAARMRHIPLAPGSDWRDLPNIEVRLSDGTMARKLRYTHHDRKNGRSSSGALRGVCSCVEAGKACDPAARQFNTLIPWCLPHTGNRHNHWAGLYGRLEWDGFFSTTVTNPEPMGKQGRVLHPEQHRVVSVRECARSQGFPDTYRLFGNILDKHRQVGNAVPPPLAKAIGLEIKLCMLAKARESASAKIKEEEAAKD

Structure (SMILES)	DNMT1 BioChemical (pIC50 category) (DNMT1; [2])	EC50 [1]	IC50 (DNMT1; [3])	IC50 (DNMT1; [4])	IC50 (DNMT1; DNMT1 BioChemical (pIC50 category), binned activity in either the breaklight or the SPA assay)	IC50 (DNMT1; average pIC50 against DNMT1, breaklight assay and/or SPA assay, repeated experimental runs)
CCc1c(C#N)c(SCc2ccc(NS(C)(=O)=O)cc2)nc(N2CCCN(C)CC2)c1C#N [Example 299, N-(4-(((3,5-Dicyano-4-ethyl-6-(4-methyl-1,4-diazepan-1-yl)pyridin-2-yl)thio)methyl)phenyl) methanesulfonamide]	D (Category D: ≥6.5)	0.316 to 1 µM	–	–	–	–
CCc1c(C#N)c(SCc2ccc(N)nc2)nc(N2CCCN(C)CC2)c1C#N [Example 300, 2-(((6-Aminopyridin-3-yl)methyl)thio)-4-ethyl-6-(4-methyl-1,4-diazepan-1-yl)pyridine-3,5-dicarbonitrile]	–	1 to 31.6 µM	0.316 to 1 µM	–	–	–
CCc1c(C#N)c(SCc2ccc(NC(=O)CO)cc2)nc(N2CCCN(C)CC2)c1C#N [Example 301, N-(4-(((3,5-Dicyano-4-ethyl-6-(4-methyl-1,4-diazepan-1-yl)pyridin-2-yl)thio)methyl)phenyl)-2-hydroxyacetamide]	D (Category D: ≥6.5)	0.316 to 1 µM	–	–	–	–
CCc1c(C#N)c(SCc2ccc(NC(=O)CN)cc2)nc(N2CCCN(C)CC2)c1C#N [Example 302, 2-Amino-N-(4-(((3,5-dicyano-4-ethyl-6-(4-methyl-1,4-diazepan-1-yl)pyridin-2-yl)thio)methyl)phenyl)acetamide]	–	> 31.6 µM	0.316 to 1 µM	–	–	–
CCc1c(Cl)c(SC(C(N)=O)c2ccccc2)nc(N2CCNCC2)c1Cl (centres unmarked) [Example 324, 2-((3,5-Dichloro-4-ethyl-6-(piperazin-1-yl)pyridin-2-yl)thio)-2-phenylacetamide]	–	> 31.6 µM	–	–	0.316 to 1 µM	0.316 to 1 µM and 0.631 µM
CCc1c(C#N)c(SCc2ccc(CNC(C)=O)cc2)nc(N2CCNC(=O)C2)c1C#N [Example 329]	–	1 to 31.6 µM	0.316 to 1 µM	–	–	–
CCc1c(C#N)c(SCc2ccc(CNC(C)=O)cc2)nc(N2CCC(O)C2)c1C#N (centres unmarked) [Example 331, N-(4-(((3,5-Dicyano-4-ethyl-6-(3-hydroxypyrrolidin-1-yl)pyridin-2-yl)thio)methyl)benzyl)acetamide]	–	> 31.6 µM	0.316 to 1 µM	–	–	–
CCc1c(C#N)c(SC(CC)c2ccc(CNC(C)=O)cc2)nc(N2CCC(N(C)C)CC2)c1C#N (centres unmarked) [Example 332, N-(4-(1-(3,5-Dicyano-6-(4-(dimethylamino)piperidin-1-yl)-4-ethylpyridin-2-ylthio)propyl)benzyl)acetamide, Trifluoroacetic Acid Salt]	–	0.316 to 1 µM	1 to 31.6 µM	–	–	–
CCc1c(C#N)c(SCc2ccc(NS(C)(=O)=O)nc2)nc(N2CCCN(C)CC2)c1C#N [Example 335, N-(5-(((3,5-dicyano-4-ethyl-6-(4-methyl-1,4-diazepan-1-yl)pyridin-2-yl)thio)methyl)pyridin-2-yl)methanesulfonamide]	–	> 31.6 µM	0.316 to 1 µM	–	–	–
CCc1c(C#N)c(SCc2ccc(CNC(C)=O)cc2)nc(SC(C(N)=O)c2ccccc2)c1C#N (centres unmarked) [Example 336, 2-(6-(4-(Acetamidomethyl)benzylthio)-3,5-dicyano-4-ethylpyridin-2-ylthio)-2-phenylacetamide]	–	1 to 31.6 µM	0.316 to 1 µM	–	–	–
CCc1c(C#N)c(SCc2ccc(-c3cccnc3)cc2)nc(N2CCC(N3CCCC3)CC2)c1C#N [Example 337, 4-Ethyl-2-((4-(pyridin-3-yl)benzyl)thio)-6-(4-(pyrrolidin-1-yl)piperidin-1-yl)pyridine-3,5-dicarbonitrile]	–	> 31.6 µM	0.316 to 1 µM	3.16 µM	–	–
CCc1c(C#N)c(SCc2ccc(-c3ccncc3)cc2)nc(N2CCC(N3CCCC3)CC2)c1C#N [Example 338, 4-Ethyl-2-((4-(pyridin-4-yl)benzyl)thio)-6-(4-(pyrrolidin-1-yl)piperidin-1-yl)pyridine-3,5-dicarbonitrile]	–	> 31.6 µM	0.316 to 1 µM	–	–	–
CCc1c(C#N)c(SCc2ccc(S(N)(=O)=O)cc2)nc(N2CCC(NC(=O)CN)CC2)c1C#N [Example 339, 2-Amino-N-(1-(3,5-dicyano-4-ethyl-6-((4-sulfamoylbenzyl)thio)pyridin-2-yl)piperidin-4-yl)acetamide hydrochloride]	D (Category D: ≥6.5)	1 to 31.6 µM	–	–	–	–
CCc1c(C#N)c(SC(C(N)=O)c2ccccc2)nc(N(C)Cc2n[nH]c(=O)[nH]2)c1C#N (centres unmarked) [Example 340, 2-((3,5-Dicyano-4-ethyl-6-(methyl((5-oxo-4,5-dihydro-1H-1,2,4-triazol-3-yl)methyl)amino)pyridin-2-yl)thio)-2-phenylacetamide]	D (Category D: ≥6.5)	1 to 31.6 µM	–	–	–	–
CCc1c(C#N)c(SC(C(N)=O)c2ccccc2)nc(N(C)Cc2nnc[nH]2)c1C#N (centres unmarked) [Example 341, 2-((6-(((4H-1,2,4-Triazol-3-yl)methyl)(methyl)amino)-3,5-dicyano-4-ethylpyridin-2-yl)thio)-2-phenylacetamide]	D (Category D: ≥6.5)	< 0.316 µM	–	–	–	–
CCc1c(C#N)c(SCc2ccc(CC(=O)NCCO)cc2)nc(N2CCCN(C)CC2)c1C#N [Example 343, 2-(4-(((3,5-Dicyano-4-ethyl-6-(4-methyl-1,4-diazepan-1-yl)pyridin-2-yl)thio)methyl)phenyl)-N-(2-hydroxyethyl)acetamide]	D (Category D: ≥6.5)	0.316 to 1 µM	–	–	–	–
CCc1c(C#N)c(SCc2ccc3[nH]ccc3c2)nc(N2CCC(N3CCCC3)CC2)c1C#N [Example 344, 2-(((1H-Indol-5-yl)methyl)thio)-4-ethyl-6-(4-(pyrrolidin-1-yl)piperidin-1-yl)pyridine-3,5-dicarbonitrile]	–	1 to 31.6 µM	0.316 to 1 µM	–	–	–
CCc1c(C#N)c(SCc2ccc(S(N)(=O)=O)cc2)nc(N2CCC(N)CC2)c1C#N [Example 345, 4-(((6-(4-Aminopiperidin-1-yl)-3,5-dicyano-4-ethylpyridin-2-yl)thio)methyl) benzenesulfonamide]	D (Category D: ≥6.5)	1 to 31.6 µM	–	–	–	–
CCc1c(C#N)c(SCc2ccc3c(c2)OCO3)nc(N2CCCN(C)CC2)c1C#N [Example 346, 2-((Benzo[1,3]dioxol-5-ylmethyl)thio)-4-ethyl-6-(4-methyl-1,4-diazepan-1-yl)pyridine-3,5-dicarbonitrile]	–	> 31.6 µM	0.316 to 1 µM	–	–	–
CCc1c(C#N)c(SCc2ccc3c(c2)C(OC)(OC)C(=O)N3)nc(N2CCCN(C)CC2)c1C#N [Example 347, 2-(((3,3-Dimethoxy-2-oxoindolin-5-yl)methyl)thio)-4-ethyl-6-(4-methyl-1,4-diazepan-1-yl)pyridine-3,5-dicarbonitrile]	–	1 to 31.6 µM	0.316 to 1 µM	–	–	–

Now from value to compound, other results behind:

DNMT1 BioChemical (pIC50 category) (DNMT1; [2])	EC50 [1]	IC50 (DNMT1; [3])	IC50 (DNMT1; [4])	Structure (SMILES)	IC50 (DNMT1; DNMT1 BioChemical (pIC50 category), binned activity in either the breaklight or the SPA assay)	IC50 (DNMT1; average pIC50 against DNMT1, breaklight assay and/or SPA assay, repeated experimental runs)
–	0.316 to 1 µM	0.316 to 1 µM	0.316 to 1 µM and 0.631 µM	CCc1c(C#N)c(SC(C(N)=O)c2ccccc2)nc(N2CC3CC2CN3C)c1C#N (centres unmarked) [Example 303, 2-((3,5-Dicyano-4-ethyl-6-(5-methyl-2,5-diazabicyclo[2.2.1]heptan-2-yl)pyridin-2-yl)thio)-2-phenylacetamide]	–	–
–	< 0.316 µM	1 to 31.6 µM	≥ 1 µM and 2 µM	CCc1c(C#N)c(SC(C(N)=O)c2ccccc2)nc(N2CCN(C(=O)c3ccc(Br)cc3)CC2)c1C#N (centres unmarked) [Example 310, 2-((6-(4-(4-Bromobenzoyl)piperazin-1-yl)-3,5-dicyano-4-ethylpyridin-2-yl)thio)-2-phenylacetamide]	–	–
–	0.316 to 1 µM	1 to 31.6 µM	–	CCc1c(C#N)c(SC(C(N)=O)c2ccccc2)nc(N2CCC(C#N)CC2)c1C#N (centres unmarked) [Example 319, 2-((3,5-Dicyano-6-(4-cyanopiperidin-1-yl)-4-ethylpyridin-2-yl)thio)-2-phenylacetamide]	–	–
–	0.316 to 1 µM	1 to 31.6 µM	–	CCc1c(C#N)c(S[C@H](C(N)=O)c2ccccc2)nc(N2CC[C@H](O)C2)c1C#N [Example 320, (S)-2-((3,5-Dicyano-4-ethyl-6-((S)-3-hydroxypyrrolidin-1-yl)pyridin-2-yl)thio)-2-phenylacetamide]	–	–
D (Category D: ≥6.5)	< 0.316 µM	–	–	CC1(N)CCN(c2nc(SC(C(N)=O)c3ccccc3)c(C#N)c(C3CC3)c2C#N)CC1 (centres unmarked) [Example 321, 2-((6-(4-Amino-4-methylpiperidin-1-yl)-3,5-dicyano-4-cyclopropvlpyridin-2-yl)thio)-2-phenylacetamide]	–	–
D (Category D: ≥6.5)	0.316 to 1 µM	–	–	CCc1c(C#N)c(SC(C(N)=O)c2ccccn2)nc(N2CC[C@H](O)C2)c1C#N (stereo partly drawn) [Example 322, 2-((3,5-Dicyano-4-ethyl-6-((S)-3-hydroxypyrrolidin-1-yl)pyridin-2-yl)thio)-2-(pyridin-2-yl)acetamide]	–	–
–	0.316 to 1 µM	1 to 31.6 µM	–	CCc1c(C#N)c(SC(C(N)=O)c2ccccc2)nc(N2CCC(NC(=O)OC(C)(C)C)CC2)c1C#N (centres unmarked) [Example 328, tert-Butyl (1-(6-((2-amino-2-oxo-1-phenylethyl)thio)-3,5-dicyano-4-ethylpyridin-2-yl)piperidin-4-yl)carbamate]	–	–
D (Category D: ≥6.5)	1 to 31.6 µM	–	–	CCc1c(C#N)c(SC(C(N)=O)c2ccccc2)nc(N2CC(CC(N)=O)C2)c1C#N (centres unmarked) [Example 330, 2-((6-(3-(2-Amino-2-oxoethyl)azetidin-1-yl)-3,5-dicyano-4-ethylpyridin-2-yl)thio)-2-phenylacetamide]	–	–
–	> 31.6 µM	0.316 to 1 µM	–	CCOc1c(C#N)c(C)nc(SC(C(N)=O)c2ccccc2)c1C#N (centres unmarked) [Example 342, 2-((3,5-Dicyano-4-ethoxy-6-methylpyridin-2-yl)thio)-2-phenylacetamide]	–	–
